This note sets out measurements from PubChem BioAssay (NCI).

Some test systems named below: CCRF-CEM leukemia; HOP-62 NSCLC; MALME-3M melanoma; NCI-H460 lung; OVCAR-3 ovarian; OVCAR-4 ovarian; SK-MEL-2 melanoma; SF-268 CNS; MDA-MB-231 breast; PC-3 prostate.
What all share (experiment): NCI anticancer screen, dose series, 48 h

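In this assay, cells in 96-well plates receive the compound at five concentrations for 48 hours. Endpoints are linearly interpolated between the surrounding concentrations. GI50 = concentration required for 50% inhibition of growth. TGI: concentration producing complete growth inhibition.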

On to `COc1cccc(C(=O)N2CCc3ccccc32)c1OC`, for which the TGI in the test on CCRF-CEM leukemia, with HOP-62 NSCLC, with MALME-3M melanoma, in the test on NCI-H460 lung, with OVCAR-3 ovarian and in the test with OVCAR-4 ovarian was more than 100 µM throughout. The TGI with SK-MEL-2 melanoma is more than 100 µM.

For `Cc1c(C(=O)c2ccccc2C(=O)O)c2ccccc2n1C`, the TGI in the test with CCRF-CEM leukemia, in the test on HOP-62 NSCLC, in the test on MALME-3M melanoma, in the test with NCI-H460 lung, in the test with OVCAR-3 ovarian and with OVCAR-4 ovarian was more than 100 µM throughout. In the test on SK-MEL-2 melanoma, the TGI is more than 100 µM.

As for `COc1ccc(C(N)=O)cc1N=NN(C)C`, the TGI with CCRF-CEM leukemia, with HOP-62 NSCLC, in the test with MALME-3M melanoma, in the test with NCI-H460 lung, in the test with OVCAR-3 ovarian and with OVCAR-4 ovarian was more than 100 µM throughout. Moreover, the TGI with SF-268 CNS and in the test on SK-MEL-2 melanoma was more than 100 µM throughout.

Turning to `CC(=O)O[C@H]1CC[C@@]2(C)C(=CC[C@H]3C4=CC=C(C(C)=O)[C@@]4(C)CCC32)C1` (stereo not given in full), the TGI in the test on CCRF-CEM leukemia, in the test with HOP-62 NSCLC, with MALME-3M melanoma, in the test with NCI-H460 lung, in the test with OVCAR-3 ovarian and in the test on OVCAR-4 ovarian was more than 100 µM in each case. This compound also gave a TGI in the test on SF-268 CNS of more than 100 µM.

With `COC1OC(CO)C(O)C(O)C1Br` (stereo not given), the TGI with CCRF-CEM leukemia, with HOP-62 NSCLC, in the test on MALME-3M melanoma, with NCI-H460 lung, with OVCAR-3 ovarian and in the test on OVCAR-4 ovarian was more than 100 µM in each case. Besides, in the test on SF-268 CNS, the TGI is more than 100 µM.

For `COc1cc2noc(-c3ccccc3)c2cc1OC`, the TGI in the test on CCRF-CEM leukemia, in the test on HOP-62 NSCLC, in the test on MALME-3M melanoma, in the test with NCI-H460 lung, with OVCAR-4 ovarian and with SF-268 CNS was more than 100 µM throughout. For the same compound, in the test with SK-MEL-2 melanoma, the TGI is more than 100 µM.

In the case of `CC(C)(C)NCc1cc(C(C)(C)C)cc(-c2ccc(Cl)cc2)c1O`, the TGI in the test on HOP-62 NSCLC turned out to be 20.1 µM; in the test on MALME-3M melanoma, 27.8 µM; in the test on MDA-MB-231 breast, 24.8 µM; with NCI-H460 lung it was 34.8 µM; in the test on OVCAR-3 ovarian, 29.5 µM; in the test with OVCAR-4 ovarian it was 41.3 µM. Moreover, the TGI with SF-268 CNS stood at 30.8 µM; in the test with SK-MEL-2 melanoma, 37.9 µM.

As to `CC(=O)OCCOCNC(=S)N/N=C(\C)c1cnc2ccccc2n1`, the TGI with CCRF-CEM leukemia was 90.2 µM; in the test with HOP-62 NSCLC, more than 100 µM; in the test with MALME-3M melanoma, more than 100 µM; in the test on NCI-H460 lung it was more than 100 µM; in the test with OVCAR-3 ovarian, more than 100 µM; in the test with OVCAR-4 ovarian, more than 100 µM. Moreover, the TGI in the test with SF-268 CNS and with SK-MEL-2 melanoma was more than 100 µM throughout.

Take `COc1c(C(=O)O)oc2c(OC)cccc12`: the TGI with CCRF-CEM leukemia, in the test on HOP-62 NSCLC, with MALME-3M melanoma, in the test on NCI-H460 lung, with OVCAR-3 ovarian and with OVCAR-4 ovarian was more than 100 µM in each case. In addition, the TGI with SF-268 CNS and in the test with SK-MEL-2 melanoma was more than 100 µM in each case.

Regarding `Cn1c(=O)nc2n(-c3cccc(F)c3)c3ccccc3nc-2c1=O`, the TGI in the test with CCRF-CEM leukemia is 56.7 µM; with HOP-62 NSCLC it was more than 100 µM; in the test on MALME-3M melanoma, 28.2 µM; in the test with NCI-H460 lung it was 67.1 µM; in the test with OVCAR-3 ovarian, 21.5 µM; in the test with OVCAR-4 ovarian, 27.8 µM. In addition, the TGI was more than 100 µM in the test on SF-268 CNS and 52.6 µM with SK-MEL-2 melanoma.

Regarding `Cn1ncc2c(N)nc(N3CCCCC3)nc21`, the GI50 was 25.7 µM with CCRF-CEM leukemia; 51.9 µM in the test on HOP-62 NSCLC; 20.8 µM with MALME-3M melanoma; 42.5 µM in the test with NCI-H460 lung; 19.9 µM with OVCAR-3 ovarian; 27.2 µM in the test with OVCAR-4 ovarian. Moreover, the figures for the GI50 in the test on PC-3 prostate, in the test on SF-268 CNS and in the test on SK-MEL-2 melanoma were 33.5 µM, 29.6 µM and 23 µM, respectively. The TGI was 85.7 µM in the test with CCRF-CEM leukemia; more than 100 µM with HOP-62 NSCLC; 67.9 µM in the test with MALME-3M melanoma; more than 100 µM in the test on NCI-H460 lung; 71.7 µM in the test with OVCAR-3 ovarian; more than 100 µM with OVCAR-4 ovarian. Also, the TGI in the test with PC-3 prostate is more than 100 µM; in the test on SF-268 CNS, 69.2 µM; in the test on SK-MEL-2 melanoma it was 71.6 µM.

For `CN(C)C(N)=NC#N`, the TGI in the test with HOP-62 NSCLC, in the test with MALME-3M melanoma, in the test with NCI-H460 lung, with OVCAR-3 ovarian, with OVCAR-4 ovarian and with SF-268 CNS was more than 100 µM each time. In the test on SK-MEL-2 melanoma, this compound came in with a TGI of more than 100 µM.

Regarding `COc1cccc(NC(=O)CC(=O)N2N=C(N(CCC#N)c3ccccc3C)CC2c2ccccc2)c1` (stereo not given), the TGI with CCRF-CEM leukemia, in the test on HOP-62 NSCLC, with MALME-3M melanoma, with NCI-H460 lung, in the test on OVCAR-3 ovarian and in the test with OVCAR-4 ovarian was more than 100 µM throughout. For the same compound, the TGI in the test with SF-268 CNS and with SK-MEL-2 melanoma was more than 100 µM in each case.

Consider `CC1(C)OC(=O)C=C([O-])O1.CC1(C)OC(=O)C=C([O-])O1.O=S(=O)([O-])c1ccc([O-])c2ncccc12.O=S(=O)([O-])c1ccc([O-])c2ncccc12.[Ti+4]`, for which the GI50 in the test on CCRF-CEM leukemia was 69.8 µM; in the test on HOP-62 NSCLC, 26.3 µM; in the test with MALME-3M melanoma, more than 100 µM; with NCI-H460 lung, 41.8 µM; with OVCAR-3 ovarian, 86.4 µM; with OVCAR-4 ovarian it was more than 100 µM. Moreover, the GI50 is 52 µM in the test on SF-268 CNS and more than 100 µM in the test with SK-MEL-2 melanoma. Besides, the TGI was more than 100 µM in the test with CCRF-CEM leukemia; 73.1 µM with HOP-62 NSCLC; more than 100 µM in the test on MALME-3M melanoma; more than 100 µM in the test with NCI-H460 lung; more than 100 µM with OVCAR-3 ovarian; more than 100 µM with OVCAR-4 ovarian. For the same compound, the TGI with SF-268 CNS and in the test with SK-MEL-2 melanoma was more than 100 µM in each case.

Take `C(CCC[Te][Te]CCCCCCOC1CCCCO1)CCOC1CCCCO1` (stereo not given): the TGI in the test with CCRF-CEM leukemia amounted to 41.4 µM; in the test with HOP-62 NSCLC, 33.7 µM; in the test with MALME-3M melanoma, 20.5 µM; with NCI-H460 lung, 30 µM; in the test with SF-268 CNS, 41.2 µM; with SK-MEL-2 melanoma, 28.3 µM.
